Holding throughout (test): combination Emax (second highest fraction inhibited in the dose matrix, 72 h); higher = more inhibition; extreme values may be limits of the assay
The test system of one assay is NCI-H2052 (Mesothelioma). Put shortly: (§1)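 Bliss excess equals the observed combination effect minus the expected value EA + EB − EA·EB, where EA and EB are the effects of each agent alone. Combination Emax is the second-highest inhibition within the matrix. Inhibition was scaled from CellTiter-Glo 2.0 luminescence, with 0 set by vehicle wells and 1 by blank wells, after 72 hours of two-drug dosing of cells plated in 1536-well plates.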

The test system of assay [1] is FTC-133 (Thyroid Gland Carcinoma). Put shortly: as §1
Assay [2] relates to BFTC-909 (Kidney Carcinoma). Put shortly: as §1
Assay [3] has as its system SW1573 (Lung Adenocarcinoma). Put shortly:
as §1

In assay [4] the test system is KMRC-20 (Kidney Carcinoma). Put shortly:
as §1

Assay [5] concerns YAPC (Pancreatic Carcinoma). Put shortly: as §1
In assay [6] the test system is HuCCT1 (Biliary Tract Carcinoma). The method in brief:
as §1

For the next assay, the system named is EW-11 (Ewing's Sarcoma). Put shortly: as §1
A further assay has as its system NCI-H2722 (Mesothelioma). The method in brief: as §1
Another assay concerns LOXIMVI (Melanoma). Put shortly: as §1
The subject of assay [7] is HeLa (Cervical Carcinoma). The method in brief: as §1
The subject of another assay is MPP-89 (Mesothelioma). The method in brief:
as §1

Assay [8] relates to Detroit562 (Head and Neck Carcinoma). Put shortly:
as §1

The subject of assay [9] is Hs-746T (Gastric Carcinoma). Put shortly:
as §1

Assay [10] has as its system SW1710 (Bladder Carcinoma). The method in brief: as §1
Assay [11] has as its system L-428 (Hodgkin's Lymphoma). Put shortly:
as §1

Assay [12] concerns NCI-H1568 (Lung Adenocarcinoma). The method in brief:
as §1

Assay [13] deals with SNU-16 (Gastric Carcinoma). Put shortly: as §1
Assay [14] concerns KYAE-1 (Esophageal Adenocarcinoma). The method in brief:
as §1

Assay [15] concerns WSU-NHL (B-Cell Non-Hodgkin's Lymphoma). The method in brief:
as §1

As for `Cc1cc2ncnn2cc1Nc1ncc2c(n1)n(C1CCOCC1)c(=O)n2C` [AZD7648] + O=C(c1cc(Cc2n[nH]c(=O)c3ccccc23)ccc1F)N1CCN(C(=O)C2CC2)CC1 [Olaparib] (first compound max 10 µM, 7x7, partner max 10 µM), the “combination Emax” value in the assay with NCI-H2052 (Mesothelioma) came to 0.308; in assay [1], 0.259; in [2], 0.305; in [3] it was 0.243; in assay [4] it was 0.282; in assay [5], 0.0464. Also, the “combination Emax” value was found to be 0.185 in assay [6]; 0.582 with EW-11 (Ewing's Sarcoma); 0.225 in the assay with NCI-H2722 (Mesothelioma); 0.479 in the assay on LOXIMVI (Melanoma); 0.22 in assay [7]; 0.28 with MPP-89 (Mesothelioma). For the same compound, the “combination Emax” value was 0.376 in assay [8]; 0.337 in assay [9]; 0.0781 in assay [10]; 0.172 in [11]; 0.212 in assay [12]; 0.463 in assay [13]. Also, the results for the “combination Emax” value in assay [14] and in assay [15] were 0.0816 and 0.71, respectively.

As for `Cc1nc(Nc2ncc(C(=O)Nc3c(C)cccc3Cl)s2)cc(N2CCN(CCO)CC2)n1` [Dasatinib] + CC(=O)Nc1cccc(-n2c(=O)n(C3CC3)c(=O)c3c(Nc4ccc(I)cc4F)n(C)c(=O)c(C)c32)c1 [Trametinib] (first compound max 2 µM, 7x7, partner max 1 µM), the “combination Emax” value with NCI-H2052 (Mesothelioma) came out at 0.558; in [1] it was 0.261; in assay [2], 0.35; in assay [3], 0.18; in [4], 0.57; in assay [5] it was 0.7. Also, the “combination Emax” value is 0.772 in [6]; 0.157 in the assay with EW-11 (Ewing's Sarcoma); 0.487 in the assay on NCI-H2722 (Mesothelioma); 1 in the assay with LOXIMVI (Melanoma); 0.241 in [7]; 0.851 with MPP-89 (Mesothelioma). In addition, the “combination Emax” value in [8] was 0.862; in assay [9], 0.746; in assay [10] it was 0.77; in [11], 0.128; in assay [12], 0.668; in assay [13] it was 0.532. In addition, the “combination Emax” value in [14] worked out at 0.0573; in assay [15] it was 0.962.

For `COc1cc2ncnc(Nc3ccc(F)c(Cl)c3)c2cc1OCCCN1CCOCC1` [Gefitinib] + CC(C)n1c(=O)n(C)c2cnc3cc(F)c(-c4ccc(OCCCN5CCCCC5)nc4)cc3c21 [AZD1390] (first compound max 10 µM, 7x7, partner max 0.3 µM), the “combination Emax” value came out at 0.137 in the assay with NCI-H2052 (Mesothelioma); 0.0388 in assay [1]; 0.184 in [2]; 0 in [3]; 0.173 in assay [4]; 0.197 in assay [5]. Also, the “combination Emax” value in assay [6] was 0.389; in the assay with EW-11 (Ewing's Sarcoma) it was 0.171; with NCI-H2722 (Mesothelioma), 0.0368; in the assay on LOXIMVI (Melanoma), 0.32; in assay [7], 0.0627; in the assay with MPP-89 (Mesothelioma) it was 0.112. Also, the “combination Emax” value in assay [8] came out at 0.471; in assay [9], 0.0968; in assay [10], 0.228; in [11] it was 0.353; in assay [12], 0.318; in assay [13], 0.36. Further, the entries for the “combination Emax” value in [14] and in assay [15] were 0.646 and 0.337, respectively.

`COc1cc2c(cc1OCCCCCOc1cc3c(cc1OC)C(=O)N1C=C(C)C[C@H]1C=N3)N=C[C@@H]1CC(C)=CN1C2=O` [SG3199] + O=C(c1cc(Cc2n[nH]c(=O)c3ccccc23)ccc1F)N1CCN(C(=O)C2CC2)CC1 [Olaparib] (first compound max 0.001 µM, 7x7, partner max 10 µM): the “combination Emax” value was found to be 0.0807 with NCI-H2052 (Mesothelioma); 0.134 in [1]; 0.0989 in assay [2]; 0.102 in [3]; 0.128 in assay [4]; 0.0017 in assay [5]. Moreover, the “combination Emax” value in [6] is 0.0094; in the assay with EW-11 (Ewing's Sarcoma), 0.582; with NCI-H2722 (Mesothelioma) it was 0.134; in the assay with LOXIMVI (Melanoma), 0.187; in assay [7], 0.159; in the assay on MPP-89 (Mesothelioma) it was 0.0885. In addition, the “combination Emax” value in assay [8] is 0.175; in [9], 0.292; in [10] it was 0.112; in [11], 0.0689; in assay [12], 0.191; in [13], 0.363. The “combination Emax” value in [14] was 0.128; in assay [15], 0.763.

Consider `C[C@@H](c1ccc2nccn2c1)n1nnc2ncc(-c3cnn(C)c3)nc21` [Savolitinib] + CC1(C)CCC(CN2CCN(c3ccc(C(=O)NS(=O)(=O)c4ccc(NCC5CCOCC5)c([N+](=O)[O-])c4)c(Oc4cnc5[nH]ccc5c4)c3)CC2)=C(c2ccc(Cl)cc2)C1 [Venetoclax] (first compound max 1 µM, 7x7, partner max 1 µM), for which the “combination Emax” value was found to be 0.121 with NCI-H2052 (Mesothelioma); 0.17 in assay [1]; 0.242 in [2]; 0.052 in [3]; 0.148 in [4]; 0.113 in assay [5]. For the same compound, the “combination Emax” value in [6] turned out to be 0.107; with EW-11 (Ewing's Sarcoma), 0.213; in the assay with NCI-H2722 (Mesothelioma) it was 0.159; in the assay on LOXIMVI (Melanoma), 0.232; in [7] it was 0.147; in the assay with MPP-89 (Mesothelioma), 0.261. Moreover, the “combination Emax” value in assay [8] was found to be 0.0649; in assay [9], 0.664; in [10], 0.0997; in assay [11], 0.117; in assay [12], 0.0767; in [13], 0.129. In addition, the “combination Emax” value in assay [14] was 0.0925; in assay [15], 0.315.

`C[C@@H](c1ccc2nccn2c1)n1nnc2ncc(-c3cnn(C)c3)nc21` [Savolitinib] + CN(CC[C@H](CSC1=CC=CC=C1)NC2=C(C=C(C=C2)S(=O)(=O)NC(=O)C3=CC=C(C=C3)N4CCC(CC4)[C@H](C5=CC=CC=C5C6=CC=C(C=C6)Cl)O)S(=O)(=O)C(F)(F)F)CCO [AZD4320] (first compound max 1 µM, 7x7, partner max 1 µM): the “combination Emax” value in the assay on NCI-H2052 (Mesothelioma) came out at 0.225; in assay [1] it was 0.546; in assay [2] it was 0.29; in assay [3] it was 0.239; in assay [4], 0.184; in the assay with NCI-H2722 (Mesothelioma) it was 0.308. Also, the “combination Emax” value was 0.13 in assay [7]; 0.237 in assay [8]; 0.753 in assay [9]; 0.773 in assay [11]; 0.256 in assay [12].

As to `C[C@@H](c1ccc2nccn2c1)n1nnc2ncc(-c3cnn(C)c3)nc21` [Savolitinib] + Cc1c2c(nn1C)CSCc1cc(n(C)n1)CSc1cc(c3ccccc3c1)OCCCc1c(C(=O)O)n(C)c3c-2c(Cl)ccc13 [AZD5991] (first compound max 1 µM, 7x7, partner max 1 µM), the “combination Emax” value was determined as 0.185 in the assay with NCI-H2052 (Mesothelioma); 0.176 in assay [1]; 0.179 in assay [2]; 0.133 in assay [3]; 0.195 in [4]; 0.11 in assay [5]. In addition, the “combination Emax” value in assay [6] is 0.117; with EW-11 (Ewing's Sarcoma), 0.491; in the assay on NCI-H2722 (Mesothelioma), 0.2; in the assay with LOXIMVI (Melanoma), 0.228; in assay [7], 0.362; in the assay with MPP-89 (Mesothelioma), 0.237. Further, the “combination Emax” value in assay [8] worked out at 0.26; in assay [9], 0.652; in assay [10], 0.105; in assay [11] it was 0.0947; in assay [12], 0.147; in assay [13], 0.947. Further, the “combination Emax” value was 0.137 in assay [14] and 0.743 in assay [15].

The values above are taken from the supplement of paper PMC11061612.
